Test results reported in patent US20240245673A1, “Papain-like protease (PLpro) inhibitors” (Pfizer Inc., priority 2022, published 2024).

Biological target: SARS-CoV-2 Papain like protease (PLpro) (Severe acute respiratory syndrome coronavirus 2 (2019-nCoV) (SARS-CoV-2), UniProt P0DTD1)
Assay: Papain Like Protease (PLpro) biochemical assay with profluorogenic substrate Z-RLRGG-AMC
Conditions: IC50 (μM), SARS-CoV-2 PLpro 6.25 nM, 25 μM Z-RLRGG-AMC substrate, 60 minute reaction

Q: Which IC50 does the source give for `Cc1ccc(N2CCNCC2)cc1C(=O)NC1(c2cc(-c3cnn(C)c3)cc3ccccc23)CC1` [Example 230, 2-methyl-N-(1-(3-(1-methyl-1H-pyrazol-4-yl)naphthalen-1-yl)cyclopropyl)-5-(piperazin-1-yl)benzamide] here?
A: The IC50 was 0.003 µM.

Same assay, conditions: SARS-CoV-2 PLpro 6.25 nM, 25 μM Z-RLRGG-AMC substrate, 60 minute reaction; read-out: IC50

Q: Which IC50 does the source give for `Cc1cc(CC(=O)Nc2cscn2)ccc1C(=O)N[C@H](C)c1cc(-c2cnn(C)c2)nc2ccccc12` [Example 236, (R)-2-methyl-N-(1-(2-(1-methyl-1H-pyrazol-4-yl)quinolin-4-yl)ethyl)-4-(2-oxo-2-(thiazol-4-ylamino)ethyl)benzamide] here?
A: The IC50 was 0.003 µM.

Q: With `Cc1ccc(CN)cc1C(=O)N[C@H](C)c1cc(-c2cnn(C)c2)cc2ccccc12` (single isomer, unassigned) [Example 8] as the compound, how does the IC50 read?
A: Its IC50 is 0.025 µM.

Q: How did the IC50 turn out when `Cc1ccc(CN)cc1C(=O)NC(C)c1cc(-c2cc(C(=O)N(C)C)c[nH]2)cc2ccccc12` (stereo not drawn) [Example 72, 5-(4-(1-(5-(aminomethyl)-2-methylbenzamido)ethyl)naphthalen-2-yl)-N,N-dimethyl-1H-pyrrole-3-carboxamide] was run?
A: The IC50 was 0.013 µM.

Q: With `Cc1cc(COCc2cocn2)ccc1C(=O)NC1(c2cc(-c3cc(C(=O)N(C)C)n[nH]3)cc3ncccc23)CC1` [Example 350, N,N-dimethyl-5-(5-(1-(2-methyl-4-((oxazol-4-ylmethoxy)methyl)benzamido)cyclopropyl)quinolin-7-yl)-1H-pyrazole-3-carboxamide] as the compound, how does the IC50 read?
A: Its IC50 is less than 0.001 µM.

Q: `Cc1ccccc1C(=O)NC(C)c1cc(CN)nc2ccccc12` (stereo in doubt) [Example 158, N-{(1R)-1-[2-(aminomethyl)quinolin-4-yl]-ethyl}-2-methylbenzamide] was tested. Which IC50 did it give?
A: The IC50 was 5.48 µM.

Q: With `Cc1ccccc1C(=O)N[C@H](C)c1cc(OCCO)nc2ccccc12` [Example 45, (R)-N-(1-(2-(2-hydroxyethoxy)quinolin-4-yl)ethyl)-2-methylbenzamide] as the compound, how does the IC50 read?
A: Its IC50 is 3.48 µM.

Q: For `Cc1cc(CC(=O)Nc2nccs2)ccc1C(=O)N[C@H](C)c1cc(-c2cnn(C)c2)nc2ccccc12` [Example 238, (R)-2-methyl-N-(1-(2-(1-methyl-1H-pyrazol-4-yl)quinolin-4-yl)ethyl)-4-(2-oxo-2-(thiazol-2-ylamino)ethyl)benzamide], which IC50 is on record?
A: The IC50 was 0.016 µM.

Q: For `Cc1nc(CNC(=O)c2ccc(C(=O)N[C@H](C)c3cc(-c4cnn(C)c4)nc4ccccc34)c(C)c2)cs1` [Example 204], which IC50 is on record?
A: The IC50 was 0.073 µM.

Q: For `Cc1ccc(N2CCNCC2)cc1C(=O)NC1(c2cc(-c3ccc(C(=O)N(C)C)[nH]3)cc3ccccc23)CC1` [Example 276, N,N-dimethyl-5-(4-(1-(2-methyl-5-(piperazin-1-yl)benzamido)cyclopropyl)naphthalen-2-yl)-1H-pyrrole-2-carboxamide], which IC50 is on record?
A: Its IC50 is 0.003 µM.

Q: For `COC[C@H](OCc1cscn1)c1ccc(C(=O)NC2(c3cc(-c4cnn(C)c4)cc4ncccc34)CC2)c(C)c1` (single isomer, unassigned) [Example 335], which IC50 is on record?
A: Its IC50 is less than 0.001 µM.

Q: `Cc1cc(CN)ccc1C(=O)NC(C)c1cc(-c2cnn(C)c2)cc2ccccc12` (stereo not drawn) [Example 5, 4-(aminomethyl)-2-methyl-N-(1-(3-(1-methyl-1H-pyrazol-4-yl)naphthalen-1-yl)ethyl)benzamide] was tested. Which IC50 did it give?
A: Its IC50 is 0.087 µM.

Q: With `Cc1ccccc1C(=O)NC(C)c1cc(-c2cn(C(C)C)nc2C)nc2ccccc12` (stereo not drawn) [Example 136, 2-methyl-N-(1-{2-[3-methyl-1-(propan-2-yl)-1H-pyrazol-4-yl]quinolin-4-yl}ethyl) benzamide] as the compound, how does the IC50 read?
A: Its IC50 is 1.41 µM.

Q: With `Cc1ccc(N2CCN(C)CC2)cc1C(=O)NC(C)c1cc(-c2cc(C(=O)N(C)C)c[nH]2)cc2ccccc12` (stereo not drawn) [Example 229, N,N-dimethyl-5-(4-(1-(2-methyl-5-(4-methylpiperazin-1-yl)benzamido)ethyl)naphthalen-2-yl)-1H-pyrrole-3-carboxamide] as the compound, how does the IC50 read?
A: Its IC50 is 0.006 µM.

Q: `Cc1cc(CNC(=O)c2cscn2)ccc1C(=O)NC(C)c1cc(-c2cnn(C)c2)cc2ccccc12` (stereo not drawn) [Example 54, N-(3-methyl-4-((1-(3-(1-methyl-1H-pyrazol-4-yl)naphthalen-1-yl)ethyl)carbamoyl)benzyl)thiazole-4-carboxamide] was tested. Which IC50 did it give?
A: Its IC50 is 0.028 µM.

Q: `Cc1ccc(N2CCN(C)CC2)cc1C(=O)NC1(c2cc(-c3cc(C(=O)N(C)C)c[nH]3)cc3ccccc23)CC1` [Example 277, N,N-dimethyl-5-(4-(1-(2-methyl-5-(4-methylpiperazin-1-yl)benzamido)cyclopropyl)naphthalen-2-yl)-1H-pyrrole-3-carboxamide] was tested. Which IC50 did it give?
A: Its IC50 is 0.002 µM.

Q: `CNCc1ccc(C)c(C(=O)N[C@H](C)c2cc(-c3cn[nH]c3)nc3ccccc23)c1` [Example 17, (R)—N-(1-(2-(1H-pyrazol-4-yl)quinolin-4-yl)ethyl)-2-methyl-5-((methylamino)methyl)benzamide] was tested. Which IC50 did it give?
A: The IC50 was 0.022 µM.

Q: For `Cc1cc(CC(=O)Nc2cncs2)ccc1C(=O)N[C@H](C)c1cc(-c2cnn(C)c2)nc2ccccc12` [Example 237, (R)-2-methyl-N-(1-(2-(1-methyl-1H-pyrazol-4-yl)quinolin-4-yl)ethyl)-4-(2-oxo-2-(thiazol-5-ylamino)ethyl)benzamide], which IC50 is on record?
A: The IC50 was 0.036 µM.

Q: For `Cc1cc(C(=O)NC(C)c2ncc[nH]2)ccc1C(=O)N[C@H](C)c1cc(-c2cnn(C)c2)nc2ccccc12` (stereo partly drawn) [Example 246], which IC50 is on record?
A: The IC50 was 0.035 µM.

Q: For `Cc1ccccc1C(=O)NC(C)c1cc(CC2CCOCC2)nc2ccccc12` (stereo in doubt) [Example 152, 2-methyl-N-[(1R)-1-{2-[(oxan-4-yl)methyl]quinolin-4-yl}ethyl]benzamide], which IC50 is on record?
A: The IC50 was 0.623 µM.

Q: Which IC50 does the source give for `Cc1cc(COCc2cscn2)ccc1C(=O)NC1(c2cc(-c3cc(C(N)=O)n[nH]3)nc3ccccc23)CC1` [Example 349, 5-(4-(1-(2-methyl-4-((thiazol-4-ylmethoxy)methyl)benzamido)cyclopropyl)quinolin-2-yl)-1H-pyrazole-3-carboxamide] here?
A: Its IC50 is less than 0.001 µM.

Q: With `Cc1ccc(NC(=O)[C@H]2CCCCN2)cc1C(=O)N[C@H](C)c1cc(-n2ccnn2)nc2ccccc12` (single isomer, unassigned) [Example 30, (R)—N-(3-(((R*)-1-(2-(1H-1,2,3-triazol-1-yl)quinolin-4-yl)ethyl)carbamoyl)-4-methylphenyl)piperidine-2-carboxamide] as the compound, how does the IC50 read?
A: The IC50 was 7.73 µM.

Q: How did the IC50 turn out when `Cc1ccccc1C(=O)NC(C)c1cc(NCC2CCS(=O)(=O)CC2)nc2ccccc12` (stereo not drawn) [Example 144, N-(1-(2-(((1,1-dioxidotetrahydro-2H-thiopyran-4-yl)methyl)-amino)quinolin-4-yl)ethyl)-2-methylbenzamide] was run?
A: Its IC50 is 1.11 µM.

Q: `COC(=O)c1c[nH]c(-c2cc(C(C)NC(=O)c3ccccc3C)c3ccccc3n2)c1` (stereo not drawn) [Example 128, methyl 5-{4-[1-(2-methylbenzamido)ethyl]quinolin-2-yl}-1H-pyrrole-3-carboxylate] was tested. Which IC50 did it give?
A: Its IC50 is 0.164 µM.

Q: For `CCN(CCOC)c1cc(C(C)NC(=O)c2ccccc2C)c2ccccc2n1` (stereo not drawn) [Example 149, N-(1-{2-[ethyl(2-methoxyethyl)amino]quinolin-4-yl}ethyl)-2-methylbenzamide], which IC50 is on record?
A: The IC50 was 2.17 µM.

Q: For `Cc1cc(C(=O)NCc2nccn2C)ccc1C(=O)N[C@H](C)c1cc(-c2cnn(C)c2)nc2ccccc12` [Example 271], which IC50 is on record?
A: The IC50 was 0.005 µM.

Q: `COCCn1cc(-c2cc(C(C)NC(=O)c3ccccc3C)c3ccccc3n2)cn1` (stereo not drawn) [Example 112, N-(1-{2-[1-(2-methoxyethyl)-1H-pyrazol-4-yl]quinolin-4-yl}ethyl)-2-methylbenzamide] was tested. Which IC50 did it give?
A: Its IC50 is 0.294 µM.

Q: For `Cc1ccc(NC(=O)[C@H]2CCCCN2)cc1C(=O)N[C@H](C)c1cc(-n2ccnn2)nc2ccccc12` (single isomer, unassigned) [Example 29, (R)—N-(3-(((R*)-1-(2-(1H-1,2,3-triazol-1-yl)quinolin-4-yl)ethyl)carbamoyl)-4-methylphenyl)piperidine-2-carboxamide], which IC50 is on record?
A: Its IC50 is 0.1 µM.

Q: Which IC50 does the source give for `CCOC(=O)[C@@H]1O[C@H]1C(=O)NNC(=O)CCc1ccccc1C(=O)N[C@H](C)c1cc(-c2cnn(C)c2)nc2ccccc12` [Example 250, ethyl (2R,3R)-3-(2-(3-(2-(((R)-1-(2-(1-methyl-1H-pyrazol-4-yl)quinolin-4-yl)ethyl)carbamoyl)phenyl)propanoyl)hydrazine-1-carbonyl)oxirane-2-carboxylate] here?
A: The IC50 was 0.002 µM.

Q: `Cc1cc(CN(C)Cc2cscn2)ccc1C(=O)N[C@H](C)c1cc(-c2cnn(C)c2)nc2ccccc12` [Example 266, (R)-2-methyl-4-((methyl(thiazol-4-ylmethyl)amino)methyl)-N-(1-(2-(1-methyl-1H-pyrazol-4-yl)quinolin-4-yl)ethyl)benzamide] was tested. Which IC50 did it give?
A: Its IC50 is 0.024 µM.

Q: For `Cc1ccc(N2C[C@H]3C[C@@H]2CN3C)cc1C(=O)N[C@H](C)c1cc(-c2cnn(C)c2)nc2ccccc12` (single isomer, unassigned) [Example 281, 2-methyl-N—((R)-1-(2-(1-methyl-1H-pyrazol-4-yl)quinolin-4-yl)ethyl)-5-((1R*,4R*)-5-methyl-2,5-diazabicyclo[2.2.1]heptan-2-yl)benzamide], which IC50 is on record?
A: Its IC50 is 0.003 µM.

Q: With `Cc1ccc(CN)cc1C(=O)NC(C)c1cc(-n2ncc(C(F)(F)F)n2)nc2ccccc12` (stereo not drawn) [Example 32, 5-(aminomethyl)-2-methyl-N-(1-(2-(4-(trifluoromethyl)-2H-1,2,3-triazol-2-yl)quinolin-4-yl)ethyl)benzamide] as the compound, how does the IC50 read?
A: Its IC50 is 0.676 µM.

Q: `Cc1cnc(N2CC3CCC2CN3)cc1C(=O)NC1(c2cc(-c3cnn(C)c3)nc3ccccc23)CC1` (stereo not drawn) [Example 284, 2-(2,5-diazabicyclo[2.2.2]octan-2-yl)-5-methyl-N-(1-(2-(1-methyl-1H-pyrazol-4-yl)quinolin-4-yl)cyclopropyl)isonicotinamide] was tested. Which IC50 did it give?
A: Its IC50 is 0.006 µM.

Q: How did the IC50 turn out when `COC(=O)c1ccc(-c2cc(C(C)NC(=O)c3ccccc3C)c3ccccc3n2)o1` (stereo not drawn) [Example 133, methyl 5-{4-[1-(2-methylbenzamido)ethyl]quinolin-2-yl}furan-2-carboxylate] was run?
A: Its IC50 is 0.392 µM.

Q: `Cc1ccccc1C(=O)NC(C)c1cc(-c2ccc3nonc3c2)nc2ccccc12` (stereo not drawn) [Example 111, N-{1-[2-(2,1,3-benzoxadiazol-5-yl)quinolin-4-yl]ethyl}-2-methylbenzamide] was tested. Which IC50 did it give?
A: Its IC50 is 17.3 µM.

Q: With `COC[C@@H](OCc1cscn1)c1ccc(C(=O)NC2(c3cc(-c4cnn(C)c4)cc4ncccc34)CC2)c(C)c1` (single isomer, unassigned) [Example 334] as the compound, how does the IC50 read?
A: The IC50 was less than 0.001 µM.
